Here are results for seven molecules from ChEMBL document CHEMBL1145225, “Antitumor agents. Part 236: Synthesis of water-soluble colchicine derivatives” (Bioorg Med Chem Lett, 2005).

In brackets after ≈: the same amount, converted by molar mass.

The nature of experiment [1]: In vitro cytotoxic activity against human lung carcinoma (A549) tumor cell line. The class given is cell-based.
Experiment [2] can be described thus: In vitro cytotoxic activity against human ovarian carcinoma (1A9) tumor cell line.
Experiment [3] in a line: (§1) In vitro cytotoxic activity against human epidermoid carcinoma of the nasopharynx (KB) tumor cell line.
In experiment [4] the test system is KB-V (P-gp-expressing MDR KB subclone). The experiment in a line: Percentage inhibition of multi drug resistant KB subclone growth expressing P-glycoprotein (KB-V) at 4 ug/mL concentration was determined. Conditions: for inhibition at 4 µg/mL: Homo sapiens, KB-V.
Another experiment relates to KB. The description is as §1. The class given is functional, cell-based.

For the molecule `COc1cc2c(c(OC)c1OC(=O)CN(C)C)-c1ccc(OC)c(=O)cc1[C@@H](NC(C)=O)CC2.O=C(O)C(O)C(O)C(=O)O`, the IC50 came to 0.88 µg/mL in experiment [1], 0.11 µg/mL in experiment [2] and 0.16 µg/mL in experiment [3]. For the same molecule, in experiment [4], the Inhibition was 4%.

Regarding `COc1cc2c(c(OC)c1OC)-c1ccc(=O)c(O)cc1[C@@H](NC(C)=O)CC2` [COLCHICEINE], the IC50 came out at 0.002 µg/mL (≈ 0.00519 µM) in experiment [1], 0.003 µg/mL (≈ 0.00778 µM) in experiment [2] and 0.003 µg/mL (≈ 0.00778 µM) in experiment [3].

For `COc1cc2c(c(OC)c1O)-c1ccc(OC)c(=O)cc1[C@@H](NC(C)=O)CC2` [2-DESMETHYLCOLCHICIN], the IC50 in experiment [1], in experiment [2] and in experiment [3] was 0.1 µg/mL (≈ 0.259 µM) throughout. In experiment [4], this molecule came in with an inhibition at 4 µg/mL of 24%.

On to `COc1cc2c(c(OC)c1OC(=O)CN(C)C)-c1ccc(OC)c(=O)cc1[C@@H](NC(C)=O)CC2`, for which the IC50 in the experiment on KB was determined as 0.09 µg/mL (≈ 0.191 µM); in experiment [1] it was 0.44 µg/mL (≈ 0.935 µM); in experiment [2], 0.04 µg/mL (≈ 0.085 µM). In addition, at 4 µg/mL the inhibition in experiment [4] was 5%.

For `COc1cc2c(c(OC)c1OC(=O)CN(C)C)-c1ccc(SC)c(=O)cc1C(NC(C)=O)CC2.O=C(O)C(O)C(O)C(=O)O` (single isomer, unassigned; 5a), the IC50 in experiment [1] is 0.06 µg/mL; in experiment [2], 0.01 µg/mL; in experiment [3], 0.02 µg/mL. The molecule further showed an Inhibition in experiment [4] of 28%.

For the molecule `COc1cc2c(c(OC)c1OC(=O)CN(C)C)-c1ccc(SC)c(=O)cc1C(NC(C)=O)CC2` (single isomer, unassigned; 5), the IC50 in experiment [1] worked out at 0.05 µg/mL (≈ 0.103 µM); in experiment [2], 0.05 µg/mL (≈ 0.103 µM); in experiment [3], 0.02 µg/mL (≈ 0.0411 µM). The inhibition at 4 µg/mL in experiment [4] was determined as 45%.

As for `COc1cc2c(c(OC)c1O)-c1ccc(SC)c(=O)cc1[C@@H](NC(C)=O)CC2`, the IC50 in experiment [1], in experiment [2] and in experiment [3] was 0.01 µg/mL (≈ 0.0249 µM) in each case. In experiment [4], this molecule showed an inhibition at 4 µg/mL of 56%.
